Source: patent US20230265151A1, “GIP/GLP1 CO-AGONIST COMPOUNDS” (priority 2020, published 2023)
Like-named read-outs stand apart in the source and are kept apart here. Where a SMILES comes first, the peptide text is derived from it. Side-chain parts run from the residue outwards. [ ]: non-standard residue; d: D form. The star is where a group is joined. αMePhe(2-F) = C[C@](N)(Cc1ccccc1F)C(=O)O; C14 diacid = O=C(O)CCCCCCCCCCCCC(=O)*; αMeY = C[C@](N)(Cc1ccc(O)cc1)C(=O)O; αMeL = CC(C)C[C@](C)(N)C(=O)O; Orn = NCCC[C@H](N)C(=O)O; AEEA = NCCOCCOCC(=O)O; Aib = CC(C)(N)C(=O)O

Tests used:
Format in all cases: cell-based
hGLP-1R = hGLP-1R (Homo sapiens, UniProt P43220); assay: Functional cAMP formation (HTRF) in HEK-293 clonal cells expressing hGLP-1R, 0.1% bovine casein, without or with 1.0% human serum albumin; parameters: expressed in transfected cells; conditions: for EC50: cAMP
Sequence of hGLP-1R (P43220 24-463): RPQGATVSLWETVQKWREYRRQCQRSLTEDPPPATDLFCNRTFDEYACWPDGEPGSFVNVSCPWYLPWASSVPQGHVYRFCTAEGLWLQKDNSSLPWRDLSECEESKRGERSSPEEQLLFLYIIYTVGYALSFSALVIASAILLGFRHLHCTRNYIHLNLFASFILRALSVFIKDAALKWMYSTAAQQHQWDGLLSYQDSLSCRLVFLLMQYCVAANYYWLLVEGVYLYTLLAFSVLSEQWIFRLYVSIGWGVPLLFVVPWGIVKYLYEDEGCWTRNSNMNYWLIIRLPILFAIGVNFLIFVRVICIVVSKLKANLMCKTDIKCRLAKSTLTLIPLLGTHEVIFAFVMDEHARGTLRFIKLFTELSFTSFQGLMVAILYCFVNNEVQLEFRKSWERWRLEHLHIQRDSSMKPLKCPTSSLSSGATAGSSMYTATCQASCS
Summary of the method: (§1)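 Cells were stimulated with peptide for 30 min at 37° C, then lysed in buffer carrying cAMP-d2 and anti-cAMP Eu3+-cryptate for a competitive HTRF read after at least 60 min at room temperature. The 665/620 nm ratio was converted to nM cAMP against a standard curve.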

hGIPR = target: T1, hGIPR (Homo sapiens, UniProt P48546); assay: Functional cAMP formation (HTRF) in HEK-293 clonal cells expressing hGIPR, 0.1% bovine casein, without or with 1.0% human serum albumin; conditions: for EC50: cAMP, 0.1% bovine casein (no human serum albumin), geometric mean
T1 construct: expressed in transfected cells
T1 sequence (P48546 22-466): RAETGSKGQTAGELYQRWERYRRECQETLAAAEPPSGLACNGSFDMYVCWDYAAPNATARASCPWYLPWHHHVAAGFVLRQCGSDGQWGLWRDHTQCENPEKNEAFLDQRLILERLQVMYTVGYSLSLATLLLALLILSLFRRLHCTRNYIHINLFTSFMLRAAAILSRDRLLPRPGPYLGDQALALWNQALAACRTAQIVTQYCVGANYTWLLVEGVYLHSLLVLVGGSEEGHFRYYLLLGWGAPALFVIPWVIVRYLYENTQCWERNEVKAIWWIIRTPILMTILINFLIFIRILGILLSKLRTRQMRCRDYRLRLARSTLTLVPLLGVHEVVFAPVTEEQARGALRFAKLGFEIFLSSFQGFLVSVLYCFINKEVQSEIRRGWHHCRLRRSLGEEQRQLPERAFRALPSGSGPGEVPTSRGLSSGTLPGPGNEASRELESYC
Summary of the method: as §1

hGCGR = target: T2, hGCGR (Homo sapiens, UniProt P47871); assay: Functional cAMP formation (HTRF) in HEK-293 clonal cells expressing hGCGR, 0.1% bovine casein, without or with 1.0% human serum albumin
T2 construct: expressed in transfected cells
T2 sequence (P47871 26-477): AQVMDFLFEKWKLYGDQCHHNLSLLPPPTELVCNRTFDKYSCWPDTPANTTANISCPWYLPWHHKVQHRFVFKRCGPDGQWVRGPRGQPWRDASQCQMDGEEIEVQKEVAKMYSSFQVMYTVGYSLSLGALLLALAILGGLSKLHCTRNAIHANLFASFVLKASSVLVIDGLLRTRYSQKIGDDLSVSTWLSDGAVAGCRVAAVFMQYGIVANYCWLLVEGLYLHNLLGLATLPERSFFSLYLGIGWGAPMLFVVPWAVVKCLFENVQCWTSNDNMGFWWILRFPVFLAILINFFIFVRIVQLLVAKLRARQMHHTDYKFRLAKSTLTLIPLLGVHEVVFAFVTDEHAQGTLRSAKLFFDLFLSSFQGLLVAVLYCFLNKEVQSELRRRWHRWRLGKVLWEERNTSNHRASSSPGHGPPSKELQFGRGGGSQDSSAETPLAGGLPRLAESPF
Summary of the method: as §1

[1] = HEK293, 0.1% bovine casein and 1.0% human serum albumin, 37° C., percent of maximal response to GIP(1-42)NH2, read-out: hGIPR Emax, % ± SEM
[2] = 0.1% bovine casein and 1.0% human serum albumin, 37° C., geometric mean, read-out: hGCGR EC50, nM (SEM, n)

**Q.** For `CC[C@H](C)[C@H](NC(=O)[C@H](CC(C)C)NC(=O)[C@](C)(Cc1ccc(O)cc1)NC(=O)[C@@H](CCC(=O)O)NC(=O)[C@@H](NC(=O)[C@H](Cc1ccccc1)NC(=O)[C@H](CCC(=O)O)NC(=O)C(C)(C)NC(=O)[C@H](CCC(N)=O)NC(=O)[C@H](C)NC(=O)[C@H](CCCCNC(=O)COCCOCCNC(=O)COCCOCCNC(=O)CC[C@H](NC(=O)CCCCCCCCCCCCC(=O)O)C(=O)O)NC(=O)[C@H](CCCN)NC(=O)[C@H](CC(=O)O)NC(=O)[C@H](CC(C)C)NC(=O)[C@](C)(CC(C)C)NC(=O)[C@@H](NC(=O)[C@](C)(CO)NC(=O)[C@H](Cc1ccncc1)NC(=O)[C@H](CC(=O)O)NC(=O)[C@H](CO)NC(=O)[C@@H](NC(=O)[C@](C)(Cc1ccccc1F)NC(=O)[C@@H](NC(=O)CNC(=O)[C@H](CCC(=O)O)NC(=O)C(C)(C)NC(=O)[C@@H](N)Cc1ccc(O)cc1)[C@@H](C)O)[C@@H](C)O)[C@@H](C)CC)[C@@H](C)CC)C(=O)N[C@@H](CCC(=O)O)C(=O)NCC(=O)NCC(=O)N[C@@H](CCCCNC(=O)COCCOCCNC(=O)COCCOCCNC(=O)CC[C@H](NC(=O)CCCCCCCCCCCCC(=O)O)C(=O)O)C(=O)N[C@@H](CO)C(=O)N[C@@H](CO)C(=O)NCC(=O)N[C@@H](C)C(=O)N1CCC[C@H]1C(=O)N1CCC[C@H]1C(=O)N1CCC[C@H]1C(=O)N[C@@H](CO)C(N)=O` [Example 213], which Emax (hGLP-1R; HEK293, percent of maximal response to GLP-1(7-36)NH2, 37° C., 0.1% bovine casein, arithmetic mean, read-out: hGLP-1R Emax, % ± SEM) is on record?
**A.** The Emax was 94.8%.

**Q.** And the Emax (hGIPR; [1])?
**A.** Its Emax is 95.6%.

**Q.** And the Emax (hGIPR; HEK293, percent of maximal response to GIP(1-42)NH2, 37° C., 0.1% bovine casein, arithmetic mean, read-out: hGIPR Emax, % ± SEM)?
**A.** The Emax was 92%.

**Q.** What about the EC50 (hGCGR; [2]) of the same compound?
**A.** The EC50 was > 9950 nM.

**Q.** What about the EC50 (hGCGR; cAMP, incubated at 37° C., 0.1% bovine casein (no human serum albumin), geometric mean, read-out: hGCGR EC50, nM (SEM, n)) of the same compound?
**A.** Its EC50 is > 9950 nM.

**Q.** With `CC[C@H](C)[C@H](NC(=O)[C@H](CCCN)NC(=O)[C@H](CC(=O)O)NC(=O)[C@H](CC(C)C)NC(=O)[C@](C)(CC(C)C)NC(=O)[C@@H](NC(=O)C(C)(C)NC(=O)[C@@H](NC(=O)[C@H](CC(=O)O)NC(=O)[C@H](CO)NC(=O)[C@@H](NC(=O)[C@](C)(Cc1ccccc1F)NC(=O)[C@@H](NC(=O)CNC(=O)[C@H](CCC(=O)O)NC(=O)C(C)(C)NC(=O)[C@@H](N)Cc1ccc(O)cc1)[C@@H](C)O)[C@@H](C)O)C(C)C)[C@@H](C)CC)C(=O)N[C@@H](C)C(=O)N[C@@H](CCC(N)=O)C(=O)NC(C)(C)C(=O)N[C@@H](CCCN)C(=O)N[C@@H](Cc1ccccc1)C(=O)N[C@H](C(=O)N[C@@H](CCCCNC(=O)COCCOCCNC(=O)COCCOCCNC(=O)CC[C@H](NC(=O)CCCCCCCCCOc1ccc(C(=O)O)cc1)C(=O)O)C(=O)N[C@@](C)(Cc1ccc(O)cc1)C(=O)N[C@@H](CC(C)C)C(=O)N[C@H](C(=O)N[C@@H](CCCCNC(=O)COCCOCCNC(=O)COCCOCCNC(=O)CC[C@H](NC(=O)CCCCCCCCCOc1ccc(C(=O)O)cc1)C(=O)O)C(=O)NCC(=O)NCC(=O)N1CCC[C@H]1C(=O)N[C@@H](CO)C(=O)N[C@@H](CO)C(=O)NCC(=O)N[C@@H](C)C(=O)N1CCC[C@H]1C(=O)N1CCC[C@H]1C(=O)N1CCC[C@H]1C(=O)N[C@@H](CO)C(N)=O)[C@@H](C)CC)[C@@H](C)CC` [Example 356] as the compound, how does the Emax (hGLP-1R; HEK293, read-out: hGLP-1R Emax, % ± SEM, cAMP, 37° C., 0.1% bovine casein and 1.0% human serum albumin, percent of maximal response to GLP-1(7-36)NH2) read?
**A.** The Emax was 93%.

**Q.** And the EC50 (hGLP-1R; hGLP-1R EC50, nM (SEM, n), 37° C., 0.1% bovine casein (no human serum albumin), geometric mean)?
**A.** The EC50 was 0.936 nM.

**Q.** What about the EC50 (hGLP-1R; hGLP-1R EC50, nM (SEM, n), 37° C., 0.1% bovine casein and 1.0% human serum albumin, geometric mean (SEM, n)) of the same compound?
**A.** The EC50 was 23.4 nM.

**Q.** What about the Emax (hGIPR; HEK293, read-out: hGIPR Emax, % ± SEM, cAMP, 37° C., 0.1% bovine casein and 1.0% human serum albumin, percent of maximal response to GIP(1-42)NH2) of the same compound?
**A.** The Emax was 82.7%.

**Q.** And the Emax (hGIPR; HEK293, read-out: hGIPR Emax, % ± SEM, cAMP, 37° C., 0.1% bovine casein, percent of maximal response to GIP(1-42)NH2, arithmetic mean)?
**A.** Its Emax is 96.2%.

**Q.** What about the EC50 (hGIPR; hGIPR EC50, nM (SEM, n), 37° C.) of the same compound?
**A.** Its EC50 is 0.0488 nM.

**Q.** And the EC50 (hGCGR; hGCGR EC50, nM (SEM, n), cAMP, 37° C., 0.1% bovine casein (no human serum albumin), geometric mean)?
**A.** The EC50 was > 9950 nM.

**Q.** And the EC50 (hGCGR; hGCGR EC50, nM (SEM, n), cAMP, 37° C., 0.1% bovine casein and 1.0% human serum albumin, geometric mean (SEM, n))?
**A.** The EC50 was > 9950 nM.

**Q.** With `CC[C@H](C)[C@H](NC(=O)[C@H](CC(C)C)NC(=O)[C@](C)(Cc1ccc(O)cc1)NC(=O)[C@H](CCCCNC(=O)COCCOCCNC(=O)COCCOCCNC(=O)CC[C@H](NC(=O)CCCCCCCCCCCCC(=O)O)C(=O)O)NC(=O)[C@@H](NC(=O)[C@H](Cc1ccccc1)NC(=O)[C@H](CCC(=O)O)NC(=O)C(C)(C)NC(=O)[C@H](CCC(N)=O)NC(=O)[C@H](C)NC(=O)[C@H](CCCCNC(=O)COCCOCCNC(=O)COCCOCCNC(=O)CC[C@H](NC(=O)CCCCCCCCCCCCC(=O)O)C(=O)O)NC(=O)[C@H](CCCN)NC(=O)[C@H](CC(=O)O)NC(=O)[C@H](CC(C)C)NC(=O)[C@](C)(CC(C)C)NC(=O)[C@@H](NC(=O)C(C)(C)NC(=O)[C@H](Cc1ccncc1)NC(=O)[C@H](CC(=O)O)NC(=O)[C@H](CO)NC(=O)[C@@H](NC(=O)[C@](C)(Cc1ccccc1F)NC(=O)[C@@H](NC(=O)CNC(=O)[C@H](CCC(=O)O)NC(=O)C(C)(C)NC(=O)[C@@H](N)Cc1ccc(O)cc1)[C@@H](C)O)[C@@H](C)O)[C@@H](C)CC)[C@@H](C)CC)C(=O)N[C@@H](CCC(=O)O)C(=O)NCC(=O)NCC(=O)N1CCC[C@H]1C(=O)N[C@@H](CO)C(=O)N[C@@H](CO)C(=O)NCC(=O)N[C@@H](C)C(=O)N1CCC[C@H]1C(=O)N1CCC[C@H]1C(=O)N1CCC[C@H]1C(=O)N[C@@H](CO)C(N)=O` [Example 113] as the compound, how does the EC50 (hGLP-1R; hGLP-1R EC50, nM (SEM, n), incubated at 37° C., 0.1% bovine casein (no human serum albumin), geometric mean) read?
**A.** Its EC50 is 0.291 nM.

**Q.** What about the Emax (hGIPR; HEK293, read-out: hGIPR Emax, % ± SEM, percent of maximal response to GIP(1-42)NH2, 37° C., 0.1% bovine casein, arithmetic mean) of the same compound?
**A.** Its Emax is 97.9 ± 3.21%.

**Q.** What about the EC50 (hGCGR; hGCGR EC50, nM (SEM, n), cAMP, incubated at 37° C., 0.1% bovine casein (no human serum albumin), geometric mean) of the same compound?
**A.** Its EC50 is > 9950 nM.

**Q.** With `CC[C@H](C)[C@H](NC(=O)[C@H](CC(C)C)NC(=O)[C@](C)(Cc1ccc(O)cc1)NC(=O)[C@@H](CCC(=O)O)NC(=O)[C@@H](NC(=O)[C@H](Cc1ccccc1)NC(=O)[C@H](CCC(=O)O)NC(=O)C(C)(C)NC(=O)[C@H](CCC(N)=O)NC(=O)[C@H](C)NC(=O)[C@H](CCCCNC(=O)COCCOCCNC(=O)COCCOCCNC(=O)CCCCCCCCCCCCC(=O)O)NC(=O)[C@H](CCCN)NC(=O)[C@H](CC(=O)O)NC(=O)[C@H](CC(C)C)NC(=O)[C@](C)(CC(C)C)NC(=O)[C@@H](NC(=O)[C@H](CO)NC(=O)[C@H](Cc1ccc(OC)cc1)NC(=O)[C@H](CC(=O)O)NC(=O)[C@H](CO)NC(=O)[C@@H](NC(=O)[C@](C)(Cc1ccccc1F)NC(=O)[C@@H](NC(=O)CNC(=O)[C@H](CCC(=O)O)NC(=O)C(C)(C)NC(=O)[C@@H](N)Cc1ccc(O)cc1)[C@@H](C)O)[C@@H](C)O)[C@@H](C)CC)[C@@H](C)CC)C(=O)N[C@@H](CCC(=O)O)C(=O)NCC(=O)NCC(=O)N1CCC[C@H]1C(=O)N[C@@H](CO)C(=O)N[C@@H](CO)C(=O)NCC(=O)N[C@@H](C)C(=O)N1CCC[C@H]1C(=O)N1CCC[C@H]1C(=O)N1CCC[C@H]1C(=O)N[C@@H](CO)C(=O)N[C@@H](CCCCNC(=O)COCCOCCNC(=O)COCCOCCNC(=O)CCCCCCCCCCCCC(=O)O)C(N)=O` [Example 267] (H-Y[Aib]EGT[αMePhe(2-F)]TSDY(Me)SI[αMeL]LD[Orn]K([AEEA-AEEA-C14 diacid])AQ[Aib]EFI[dE][αMeY]LIEGGPSSGAPPPSK([AEEA-AEEA-C14 diacid])-NH2) as the compound, how does the EC50 (hGLP-1R; 37° C., 0.1% bovine casein (no human serum albumin), geometric mean, read-out: hGLP-1R EC50, nM (SEM, n)) read?
**A.** Its EC50 is 0.271 nM.

**Q.** What about the Emax (hGIPR; [1]) of the same compound?
**A.** The Emax was 88.1%.

**Q.** What about the EC50 (hGIPR; 37° C., read-out: hGIPR EC50, nM (SEM, n)) of the same compound?
**A.** The EC50 was 0.0162 nM.

**Q.** And the EC50 (hGCGR; [2])?
**A.** Its EC50 is > 9950 nM.

**Q.** And the EC50 (hGCGR; cAMP, 37° C., 0.1% bovine casein (no human serum albumin), geometric mean, read-out: hGCGR EC50, nM (SEM, n))?
**A.** The EC50 was > 9950 nM.
